IC50 data for two molecules are collected here from BindingDB's records for patent US11802133 (Hoffmann-La Roche, 2023).

The assay concerns the target T1, Monoglyceride lipase (Homo sapiens, UniProt Q99685).
T1 sequence (Q99685 whole entry): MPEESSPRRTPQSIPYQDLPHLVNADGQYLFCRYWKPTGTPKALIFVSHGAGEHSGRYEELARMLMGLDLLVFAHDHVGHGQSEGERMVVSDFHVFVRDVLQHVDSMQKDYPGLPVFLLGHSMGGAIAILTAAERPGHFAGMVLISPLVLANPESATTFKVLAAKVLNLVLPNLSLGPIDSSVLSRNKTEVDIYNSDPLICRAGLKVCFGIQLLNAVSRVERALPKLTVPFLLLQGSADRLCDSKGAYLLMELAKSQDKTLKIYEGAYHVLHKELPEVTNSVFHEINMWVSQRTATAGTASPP
Kind of assay: MAGL Inhibitory Activity Assay. The method, then:
The plate was shaked for 1 min at 2000 rpm (Variomag Teleshake) and then incubated for 15 min at RT. […] The final concentrations in the assay were 1 nM MAGL and 300 μM 4-Nitrophenylacetate. […] A second measurement was then done after incubation for 80 min at RT. From the two measurements, the slope was calculated by subtracting the first from the second measurement.

Each structure is given as a SMILES string. pIC50: −log10 of the molar value.

As to `O=C1CO[C@H]2CCN(C(=O)N3CC(OCc4cccc(OC(F)(F)F)c4)C3)C[C@H]2N1` [US11802133, Example 226], the pIC50 (usually the negative decadic logarithm of the IC50, by convention in mol/L) was 7.35.
As to `O=C1CO[C@H]2CCN(C(=O)N3CC(CCc4ccc(O)cc4C(F)(F)F)C3)C[C@H]2N1` [US11802133, Example 293], the pIC50 was 7.52.
